Measured values reported in article PMC10366102, “Dose escalation and expansion cohorts in patients with advanced breast cancer in a Phase I study of the CDK7-inhibitor samuraciclib” (Nature Communications, 2023).
“And” between values parts separate entries of the source, which are not always exact repeats. Equal entries are not always repeated. “Also recorded” adds a separate entry of the source. Where two headings read alike, the source gives them in different places.

Tests used:
[1] = system: advanced solid malignancies; test: Module 1A anti-tumor activity (RECIST V1.1, PSA); type: in vivo, human
Excerpt: treatment RECIST assessment. […]
number of patients in the particular analysis population. Duration of response (DoR) was defined as the time from documentation of tumor response to disease progression. Progression-free survival (PFS) was […]
cause, whichever occurred first. Efficacy results were summarized descriptively and Kaplan -Meier plots provided where appropriate. […]

[2] = Module 2A trough PK of samuraciclib and fulvestrant; type: in vivo, human
Excerpt: PK parameters were derived using standard non-compartmental methods.
o. Radionuclide Bone Scans, Whole Body should be performed at Screening. See also footnote a.
• If at Screening bone lesions were identified, scans will be repeated during the active treatment phase and during follow-up visits every 16 weeks (± 7 days) from Cycle 1 Day
1, and at the time of confirmation of CR.
• If no bone lesions were identified at Screening, bone scans will only be performed when clinically indicated (i.e., patient describes new or worsening bone pain or has
increasing alkaline phosphatase level or other signs and symptoms of new/progressing bone metastases) but are required at the time of confirmation of CR. New abnormalities
found on subsequent bone scans must be confirmed by CT scan with bone windows or MRI.
p. Adverse Event Reporting : Serious Adverse Events (SAEs) must be reported from the time the patient provides informed consent through and including 28 calendar days after the last
administration of the study drug. SAEs occurring after the active reporting period has ended should be reported if the investigator becomes aware of them. All SAEs that the investigator
believes have at least a reasonable possibility of being related to the study drugs are to be reported to the Sponsor. All AEs (serious and non-serious) should be recorded on the eCRF […]

[3] = design: method as in ref IB; details: mouse; ref IB; cited from earlier work
CYP1A2 = system: CYP1A2; design: method as in ref IB; details: human microsomes; ref IB; cited from earlier work
[4] = design: method as in ref IB; details: rat microsomes; ref IB; cited from earlier work
[5] = design: method as in ref IB; details: mouse microsomes; ref IB; cited from earlier work
[6] = Module 1A, 36 evaluable patients
[7] = two castrate-resistant prostate cancer patients

CC(C)c1cnn2c(NCc3ccccc3)cc(NC[C@H]3CCNC[C@@H]3O)nc12 [samuraciclib, Samuraciclib]
Best change in lesion size on CT scan ([1]; 1 colorectal cancer patient, 120 mg): -21%
Decline in cancer antigen CA 15-3 ([1]; 1 patient with HR-positive BC, interim): 30%
Decline in PSA ([1]; 2/2 patients with castrate-refractory prostate cancer, interim, listed as CT7001): 45% and 30%
Best objective response: Complete response ([1]; Module 1A N = 36): 0 n (%)
Best objective response: Partial response ([1]; Module 1A N = 36): 1 (2.8) n (%)
Best objective response: Progressive disease ([1]; Module 1A N = 36): 17 (47.2) n (%)
Disease control rate ([1]; Module 1A N = 36): 19 (52.8) n (%)
Disease control rate [1, 6]: 53% and 52.8%
Patients maintaining stable disease ≥ 12 weeks [1, 6]: 38.9%
Reduction in PSA compared to baseline [1, 7]: 28% and 44%
Interaction between samuraciclib and fulvestrant PK [2]: no fulvestrant interaction; also recorded: did not indicate an interaction; also recorded: No clinical PK interactions
Oral bioavailability [3]: good oral bioavailability
Intrinsic clearance [4]: high
Intrinsic clearance [5]: intermediate
